Assay results taken from patent publication US4661603A, “Imidazole derivatives” (Yoshitomi Pharmaceutical Industries, Ltd., priority 1982, dated 1987).

Columns and labels:
thromboxane synthetase = target: T1, thromboxane synthetase (Homo sapiens, UniProt P24557); assay: Inhibitory effect on thromboxane synthetase; format: biochemical; details: in vitro; human platelet microsomes; 4.3 μM 14C-arachidonic acid, 25° C., 5 minutes; read-out: Inhibitory effect on thromboxane synthetase (50% inhibitory molar concentration)
T1 construct: incubating human platelet microsomes; from tissue; host or cells: human platelet microsomes
T1 sequence (P24557 1-533): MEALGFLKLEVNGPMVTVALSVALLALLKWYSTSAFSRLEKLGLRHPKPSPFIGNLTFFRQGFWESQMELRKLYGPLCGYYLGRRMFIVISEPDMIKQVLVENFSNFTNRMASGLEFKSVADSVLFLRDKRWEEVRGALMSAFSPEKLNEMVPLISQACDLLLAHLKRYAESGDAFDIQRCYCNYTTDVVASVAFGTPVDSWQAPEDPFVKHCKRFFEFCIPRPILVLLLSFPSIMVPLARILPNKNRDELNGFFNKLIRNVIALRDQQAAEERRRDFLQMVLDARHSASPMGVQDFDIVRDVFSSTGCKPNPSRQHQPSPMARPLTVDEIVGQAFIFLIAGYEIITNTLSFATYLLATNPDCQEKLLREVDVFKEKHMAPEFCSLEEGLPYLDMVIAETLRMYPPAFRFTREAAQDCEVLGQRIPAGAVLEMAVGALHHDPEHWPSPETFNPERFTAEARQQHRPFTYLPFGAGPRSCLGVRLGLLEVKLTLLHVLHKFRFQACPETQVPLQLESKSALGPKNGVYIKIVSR
Procedure: (§1) Effects of test compounds on thromboxane synthetase, cyclo-oxygenase and prostacyclin synthetase were examined in vitro by the following methods:
According to the method described in Journal of Biological Chemistry, vol. 252, page 5871 (1977), thromboxane was produced by incubating human platelet microsomes with 4.3 μM ^14 C-arachidonic acid at 25° C. for 5 minutes. Since thromboxane A2 is extremely short-lived, thromboxane B2, which is a stable degradation product of thromboxane A2, was assayed. The incubation mixture was extracted with ethyl acetate, and thromboxane B2 was separated on a thin-layer chromatogram. The zone of thromboxane B2 on a silica gel plate was detected with a radiochromatoscanner and scraped off. The radioactivities were determined with a liquid scintilation counter.
The inhibitory activities of test compounds on thromboxane synthetase were assessed by comparing the contents of thromboxane formed in the presence and the absence of test compounds.

[1] = Acute toxicity (oral LD50); details: rat, in vivo, p.o., six male Wistar rats
Procedure: According to the method described in Journal of Pharmacological and Experimental Therapeutics, vol. 96, page 99 (1949), the test compounds were orally administered to a group consisting of six male Wistar rats. The 50% lethal doses (LD50, mg/kg) were determined.

cyclo-oxygenase = target: T2, cyclo-oxygenase (Bos taurus, UniProt O62664); assay: Inhibitory effect on cyclo-oxygenase; format: biochemical; details: in vitro; bovine seminal vesicle microsomes; 104.3 μM 14C-arachidonic acid, 25° C., 10 minutes; read-out: Inhibitory effect on cyclo-oxygenase (50% inhibitory molar concentration)
T2 construct: bovine seminal vesicle microsomes; from tissue; host or cells: bovine seminal vesicle microsomes
T2 sequence (O62664 25-600): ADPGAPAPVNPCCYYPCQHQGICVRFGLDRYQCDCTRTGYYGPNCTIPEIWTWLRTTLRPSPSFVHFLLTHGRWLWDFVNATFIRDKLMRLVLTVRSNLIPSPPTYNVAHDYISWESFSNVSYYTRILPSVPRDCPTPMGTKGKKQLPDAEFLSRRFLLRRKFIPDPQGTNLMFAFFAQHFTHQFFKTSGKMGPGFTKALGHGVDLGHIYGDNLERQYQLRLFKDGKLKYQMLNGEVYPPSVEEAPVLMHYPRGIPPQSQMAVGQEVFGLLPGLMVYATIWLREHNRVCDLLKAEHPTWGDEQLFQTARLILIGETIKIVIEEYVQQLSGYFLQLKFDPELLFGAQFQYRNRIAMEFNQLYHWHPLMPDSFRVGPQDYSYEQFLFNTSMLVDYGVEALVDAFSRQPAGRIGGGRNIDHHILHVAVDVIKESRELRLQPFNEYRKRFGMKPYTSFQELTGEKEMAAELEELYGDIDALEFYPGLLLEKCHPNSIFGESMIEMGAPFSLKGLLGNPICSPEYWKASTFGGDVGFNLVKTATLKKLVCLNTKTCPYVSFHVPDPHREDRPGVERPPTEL
Procedure: as §1
According to the method described in Proceedings of National Academy of Sciences, U.S.A., vol. 71, page 3645 (1974), bovine seminal vesicle microsomes were incubated with 104.3 μM ^14 C-arachidonic acid at 25° C. for 10 minutes. Prostaglandin E2 thus formed was separated and assayed using the same method as (a).
The inhibitory activities of test compounds on cyclo-oxygenase were assessed by comparing the contents of prostaglandin E2 formed in the presence and absence of test compounds.

platelet aggregation = assay: Inhibitory activities on platelet aggregation (ex vivo, arachidonic acid, after oral administration to rabbits); format: in vivo, rabbit; details: Oryctolagus cuniculus, 1 h, blood one hour after administration, read-out: Inhibitory activities on platelet aggregation, Rate of inhibition
Procedure: According to the method described in Journal of Physiology, vol. 162, page 67 (1962), the inhibitory activities of compounds of this invention on platelet aggregation were measured from the changes in transmittance with an aggregometer (Rikadenki Electronics Co., Japan).
Before and one hour after the oral administration of test compounds to rabbits, blood was collected. The blood was mixed with sodium citrate in the ratio of 9:1 by volume. Platelet rich plasma (PRP) was prepared by centrifuging the citrated blood at 1000 rpm for 10 minutes, and platelet poor plasma (PPP), by centrifuging the remaining citrated blood at 3000 rpm for 10 minutes.
The transmittance of aggregometer was adjusted to 0 and 100% with PRP and PPP, respectively. To 0.3 ml of a PRP sample was added 0.003 ml of arachidonic acid solution. The changes in transmittance of the mixture were measured using the aggregometer with stirring at 1200 rpm.
Inhibitory activities on platelet aggregation were assessed as % inhibition by comparing the rate of aggregation of treated PRP with that of blood collected before the oral administration of test compounds.

prostacyclin synthetase = target: T3, prostacyclin synthetase (Rattus norvegicus, UniProt Q62969); assay: Inhibitory effect on prostacyclin synthetase; format: biochemical; details: in vitro; rat aorta ring; 1.7 μM 14C-arachidonic acid, 37° C., 20 minutes; read-out: Inhibitory effect on prostacyclin synthetase (50% inhibitory molar concentration)
T3 construct: incubating the rat arota ring; from tissue; host or cells: rat aorta ring
T3 sequence (Q62969 1-501): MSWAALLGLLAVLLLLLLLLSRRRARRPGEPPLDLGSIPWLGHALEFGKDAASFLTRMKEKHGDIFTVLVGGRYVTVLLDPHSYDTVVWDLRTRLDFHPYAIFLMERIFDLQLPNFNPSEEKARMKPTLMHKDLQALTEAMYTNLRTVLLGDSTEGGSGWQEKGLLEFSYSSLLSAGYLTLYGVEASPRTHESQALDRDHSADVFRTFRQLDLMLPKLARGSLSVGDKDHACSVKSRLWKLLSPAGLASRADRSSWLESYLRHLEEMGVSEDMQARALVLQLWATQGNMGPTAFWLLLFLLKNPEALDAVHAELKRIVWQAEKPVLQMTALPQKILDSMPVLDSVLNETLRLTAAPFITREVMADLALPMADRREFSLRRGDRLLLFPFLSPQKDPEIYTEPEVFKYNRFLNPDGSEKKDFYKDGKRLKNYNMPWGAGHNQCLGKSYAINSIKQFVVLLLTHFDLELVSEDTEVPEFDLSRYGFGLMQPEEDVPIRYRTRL
Procedure: as §1
According to the method described in Journal of Pharmacology and Experimental Therapeutics, vol. 215, page 240 (1980), prostacyclin was formed by incubating the rat arota ring with 1.7 μM ^14 C-arachidonic acid at 37° C. for 20 minutes. Since prostacyclin is extremely short-lived, 6-keto-prostaglandin F1α, which is a stable degradation product of prostacyclin, was separated and assayed using the same method as (a).
The inhibitory activities of test compounds on prostacyclin synthetase were assessed by comparing the contents of 6-keto-prostaglandin F1α formed in the presence and the absence of test compounds.

SMILES | IC50 (thromboxane synthetase) | LD50 [1] | IC50 (cyclo-oxygenase) | inhibition at 10 mg/kg (platelet aggregation) | IC50 (prostacyclin synthetase)
COC(=O)c1cc(C)c(C(O)c2cc(-n3ccnc3)ccc2C)c(C)c1 (stereo not drawn) [α-(2,6-dimethyl-4-methoxycarbonylphenyl)-2-methyl-5-(1-imidazolyl)benzenemethanol] | 0.7 µM | > 1000 mg/kg | > 100 µM | 100% | > 100 µM
Cc1ccc(-n2ccnc2)cc1C(O)c1c(C)cc(C(=O)OC(C)C)cc1C (stereo not drawn) [α-(2,6-dimethyl-4-isopropoxycarbonylphenyl)-2-methyl-5-(1-imidazolyl)benzenemethanol] | – | > 1000 mg/kg | > 100 µM | 76% | > 100 µM
Cc1cc(C)c(C(O)c2ccc(-n3ccnc3)c(Cl)c2)c(C)c1 (stereo not drawn) [α-(2,4,6-trimethylphenyl)-3-chloro-4-(1-imidazolyl)benzenemethanol] | 0.18 µM | > 1000 mg/kg | > 100 µM | 80% | > 100 µM
Cc1cc(C)c(C(O)c2cc(-n3ccnc3)ccc2C)c(C)c1 (stereo not drawn) [α-(2,4,6-trimethylphenyl)-2-methyl-5-(1-imidazolyl)benzenemethanol] | 0.82 µM | > 1000 mg/kg | – | 100% | –
Cc1ccc(-n2ccnc2)cc1C(O)c1c(C)cc(C(=O)O)cc1C (stereo not drawn) [α-(2,6-dimethyl-4-carboxyphenyl)-2-methyl-5-(1-imidazolyl)benzenemethanol] | 0.022 µM | > 1000 mg/kg | > 100 µM | 100% | > 100 µM
Cc1cc(C)c(C(O)c2cccc(-n3ccnc3)c2)c(C)c1 (stereo not drawn) [α-(2,4,6-trimethylphenyl)-3-(1-imidazolyl)benzenemethanol] | 0.34 µM | > 1000 mg/kg | > 1000 µM | 100% | > 100 µM
Cc1cc(C)c(C(O)c2ccc(C)c(-n3ccnc3)c2)c(C)c1 (stereo not drawn) [α-(2,4,6-Trimethylphenyl)-4-methyl-3-(1-imidazolyl)benzenemethanol] | – | > 1000 mg/kg | – | 88% | –
Cc1cc(C(=O)O)cc(C)c1C(O)c1cc(-n2ccnc2)ccc1Cl (stereo not drawn) [α-(2,6-dimethyl-4-carboxyphenyl)-2-chloro-5-(1-imidazolyl)benzenemethanol] | 0.052 µM | > 1000 mg/kg | > 100 µM | 100% | > 100 µM
Cc1cc(C)c(C(O)c2cc(-n3ccnc3)ccc2Cl)c(C)c1 (stereo not drawn) [α-(2,4,6-trimethylphenyl)-2-chloro-5-(1-imidazolyl) benzenemethanol] | 2.3 µM | > 1000 mg/kg | > 1000 µM | 71% | > 1000 µM
CCOC(=O)c1cc(C)c(C(O)c2cc(-n3ccnc3)ccc2C)c(C)c1 (stereo not drawn) [α-(2,6-dimethyl-4-ethoxycarbonylphenyl)-2-methyl-5-(1-imidazolyl)benzenemethanol] | – | > 1000 mg/kg | > 100 µM | 100% | > 100 µM
Cc1cc(C)c(C(O)c2cccc(-n3ccnc3)c2C)c(C)c1 (stereo not drawn) [α-(2,4,6-Trimethylphenyl)-2-methyl-3-(1-imidazolyl)benzenemethanol] | – | > 1000 mg/kg | – | 68% | –
